From publication PMC12668304, “A Triple Threat Against Ovarian Cancer: Os(II)‐Pt(IV)‐Ceritinib Conjugates for Photodynamic Therapy, Chemotherapy, and Immunogenic Cell Death Induction” (Angewandte Chemie (International Ed. in English), 2025)
Read-outs that look alike come from different tables or passages of the source.

Assays:
A2780 MCTSs = assay: Growth kinetics (diameter) of spheroids; type: cell-based, human; settings: 0.5 µM, irradiated 1 h at 740 nm, after 72 h
Protocol: A2780 spheroids (ca. 500 µm in diameter) were treated with increasing concentrations of the compounds and after 24 h of incubation, the medium was replaced with fresh medium, and the cells were either kept in the dark or irradiated for 1 h at 740 nm. Images of the spheroids were taken every 24 h for 3 days.
Figure 4 Changes in the growth kinetics of A2780 MCTSs treated with complex Os‐Pt‐Cer, Os, ceritinib, oxaliplatin, and cisplatin at 0.5 and 5 µM for irradiated and dark groups, respectively, and non‐treated as control. Images were collected on 0, 4, 24, and 72 h after the creation of the groups. Scale bar: 1000 µm.
4 h of incubation, the conversion of resazurin into resorufin was determined upon excitation at 540 nm and measurement of its emission at 590 nm using a Cytation 5 Imaging Reader from BioTek. The obtained data was analysed with the GraphPad Prism software
MCTS were cultured using ultra-low attachment 96 wells plates from Corning (Fisher Scientific 15329740). A2780 cells were seeded at a density of 1,500 cells per well in 100 μL of RPMI. Within 2-3 days, MCTSs have approximately 500 μm of diameter. The formation as well as integrity and diameter of the MCTSs were monitored by microscopy.
(Photo-)cytotoxicity on 3D multicellular tumor spheroids (MCTS) […]
Intracellular distribution by confocal fluorescence microscopy […]
Images were analysed with LAS X Flim FCS software. […]

RPE‐1 cells = assay: (Photo-)cytotoxicity on 2D cell monolayers, resazurin assay; type: cell-based; settings: RPE‐1, normoxic, dark, 4 h exposure, total 48 h incubation, read-out: IC50 Dark
Protocol: The 2D cytotoxicity and phototoxicity profiles of Os‐Pt‐Cer and controls, were evaluated in a panel of cancerous cell lines, including A2780 (ovarian carcinoma), A549 (non‐small cell lung carcinoma), and MCA205 (murine fibrosarcoma), as well as a non‐cancerous retinal pigment epithelial cell line (RPE‐1). Cells were treated with the compounds (0.003–100 µM) for 4 h, either kept in the dark or irradiated at 670 nm (13.5 J cm^− ^2) (Table S4 and Figure S22) or 740 nm (12.6 J cm^− ^2) and viability was assessed 44 h post‐treatment. To verify robustness, the incubation was extended to 72 h. […]
Human ovarian cancer (A2780) cells and mouse fibrosarcoma cells (MCA205) were cultured in RPMI media. Retinal pigment epithelium (RPE -1) cells were cultured in DMEM/F -12 medium. Lung cancer cells (A549) were cultured in F -12K medium. These cell lines were complemented with 10% of fetal bovine serum, 100 U/mL penicillin -streptomycin mixture, and maintained in a humidified atmosphere […]
(Photo-)cytotoxicity on 2D cell monolayers
The cytotoxicity of the compounds was assessed by measuring cell viability using a resazurin assay.
The cells were seeded in triplicates in 96 well plates with a density of 10 4 cells per well in 100 μL of media. After 24 h, the medium was removed, and the cells were treated with increasing concentrations (0.003 → 100 µM) of the compounds diluted in cell media , achieving a total volume of 100 μL/well.
The cells were incubated with the compound for 4 h (final incubation time 48 h) or 24 h (final incubation time 72 h). After this time, the media was removed and replaced with 100 μL of fresh medium. For the phototoxicity studies, the cells were exposed to light with an Atlas Photonics LUMOS BIO irradiation system. Each well was constantly irradiated at 670 nm (60 min, 13.50 J·cm-2) or 740 nm (60 min, 12.60 J·cm-2). During the irradiation, the temperature of the plate was maintained at 37 °C. The cells were grown in the incubator for an additional 44 or 48 h, respectively. For the determination of the dark cytotoxicity, the cells were not irradiated and after the medium exchange directly incubated for 44 h.
After this time, the medium was replaced with fresh medium containing resazurin (0.2 mg/mL). After […]
4 h of incubation, the conversion of resazurin into resorufin was determined upon excitation at 540 nm and measurement of its emission at 590 nm using a Cytation 5 Imaging Reader from BioTek. The obtained data was analysed with the GraphPad Prism software […]
After 24 h of incubation at 37 °C, 5% CO 2, plates were read using a SpectraMaxM2 Microplate Reader ( λexc = 540 nm; λread = 590 nm). Fluorescence data were normalised, and data were fitted using GraphPad Prism Software, and IC 50 was calculated by non - linear regression. Changes in the size and shape of MCTS were monitored every 24 h using Cytation 5 Imaging Reader from BioTek, objective x4.
Intracellular distribution by confocal fluorescence microscopy
10^4 cells/well (A2780 cells) were seeded in complete medium (RPMI) in µ -slide 8 well (Ibidi) (100 µl/well) and left for 24 h to attach to the bottom. Then, the culture medium was removed , and 100 µl of solution of the corresponding complexes (5 µM) was added. The complexes were incubated with the cells for 4 hours. Thereafter, the medium was removed and replaced by RPMI without phenol red , and Hoechst and MitoTracker Green were added at a final concentration of 1 µg/mL. They were incubated with the cells for 30 min in the dark at 37 °C. Images were collected in a sequential mode in a Leica TCS SP8 confocal microscope with a 60x oil immers ion objective, a line average of 4, and a format of […]
(MTG)→ 500 -550nm, and 488 nm (complexes)→ 680 -730 nm. The confocal pinhole was 1 Airy unit.
Images were analysed with LAS X Flim FCS software.
Intracellular distribution by ICP -MS

| Compound | change of MCTS diameter (A2780 MCTSs) | IC50 (RPE‐1 cells) | IC50 (RPE‐1 cells; Homo sapiens) |
| --- | --- | --- | --- |
| O=C1[O][Pt]2([NH][C@@H]3CCCC[C@H]3[NH]2)[O]C1=O [Oxaliplatin] | increased with time | > 100 µM |  |
| Cc1cc(Nc2ncc(Cl)c(Nc3ccccc3S(=O)(=O)C(C)C)n2)c(OC(C)C)cc1C1CCNCC1 [Ceritinib] | increased with time |  | 4.76 ± 0.2 µM |
